The results in this text go back to publication PMC3745399, “An NO Donor Approach to Neuroprotective and Procognitive Estrogen Therapy Overcomes Loss of NO Synthase Function and Potentially Thrombotic Risk” (PLoS ONE, 2013).

Structures are written as SMILES. Where two headings read alike, the source gives them in different places.

The nature of test [1]: Anticoagulation: PT and aPTT after i.p. dosing. Format: in vivo, mouse. As to conditions: for PT / aPTT / anticoagulant effect (PT, aPTT) at 3 h: C57Bl/6 mice, 2 mg/kg i.p.; for PT / aPTT: 1 h; for anticoagulation (PT and aPTT) with NOS blockade: L-NAME 50 mg/kg 30 min prior to collection, SERM 2 mg/kg 1 h prior. The procedure: Figure 6 Effect of SERMs and NO-SERM on […] clotting cascades. Blood was collected by cardiac puncture and PTT and aPTT were determined 1 or 3 h after i.p. drug administration (2 mg/kg).
SERMs were injected (i.p.) into 6–8 month old male C57Bl/6 mice 1 h before blood collection, and L-NAME was injected (i.p.) 30 min before blood collection. The mouse was sedated by exposing it to CO2 until unconscious and blood was collected in 4.5 mL BD Vacutainer Glass Evacuated Blood Collection Tubes (with 0.105 M buffered sodium citrate) by cardiac puncture. The blood samples were centrifuged at 300 g for 30 min to separate the plasma from the blood, and then 200 uL of plasma was taken from each sample and the PT and aPTT were measured using an ACL 7000 Coagulation Analyzer. The analyzer injects […] of PT-fibrinogen (lyophilized rabbit brain calcium thromboplastin with stabilizers, polybrene, buffer and preservatives) to 75 µL of plasma sample to measure the PT, and 75 µL of synthAFAX (0.025 M)+100 µL of CaCl2 (0.02 M) were added to 75 µL of plasma to measure aPTT. The analysis was at 37°C using a photo sensor at λ = 671 nm.

A further test relates to isolated rings of aortae. Description: Aortic ring relaxation. On the set-up: species or system rat. As for the experimental part: Isolated rings of aortae from male Sprague-Dawley rats (250–300 g) were prepared for isometric tension measurements and were equilibrated for 1 h at an optimal resting tension of 10 mN. Tissues were contracted submaximally with 0.3 µM phenylepinephrine, and after 10–15 m cumulative concentration-response curves for SERMs (0.01–30 µM) were obtained. Some aortic ring preparations were denuded of the endothelium, or were treated with 100 µM L-NAME, prior to assessment of SERM-induced relaxation responses.

Test [2] can be described thus: NO levels (NOx) in hippocampus and plasma by chemiluminescence. Format: in vivo, mouse. As to conditions: 2 mg/kg i.p., 1 h; for elevation of NOx in hippocampus / elevation of NOx in plasma: WT mice. The procedure:
Brain and plasma NO levels were assessed by measuring metabolic oxidation products, NO2 ^−and NO3 ^− (NOx), using chemiluminescence detection.
Figure 5 Effects of SERM and NO-SERMon NO levels in plasma and brain of WT and eNOS (−/−) mice. Levels of NO were assessed by measuring breakdown products 1 h after i.p. injection of SERMs (2 mg/kg) using chemiluminescence detection.
All experiments were performed on 6–8 month male C57B1/6 mice (Charles River Laboratory) or eNOS(−/−) animals. Animals were injected (i.p.) at various time points before sacrifice at the doses specified. After euthanasia via CO2, plasma was collected, and cortices and hippocampi were collected after PBS perfusion and stored at −80°C. Tissue samples were weighed and extracted with methanol. Plasma samples were extracted with cold acetonitrile. Quantitative analysis of drug concentrations in plasma and brain used internal standards spiked into plasma and brain homogenates before liquid extraction with acetonitrile or methanol, and separation and measurement was performed with LC-MS/MS tandem mass spectrometry. The supernatant (deproteinized) was analyzed by chemiluminescence with SIEVERS 280i nitric oxide analyzer.

Test [3] has as its system primary cortical neurons exposed to OGD. Description: Neuroprotection in oxygen glucose deprivation (OGD), MTT. In kind it is cell-based, rat. To be noted: for neuroprotection with G15: 100 nM SERM + G15 100 nM (GPR30 antagonist); for neuroprotection with L-NAME: 100 nM SERM + L-NAME 100 µM (NOS antagonist), whether it attenuated neuroprotective activity; for neuroprotection with LY294002: 100 nM SERM + LY294002 10 µM (PI3K inhibitor); for neuroprotection with pertussis toxin: 100 nM SERM + pertussis toxin 100 ng/mL; for neuroprotection (cell survival by MTT): 100 nM, 2 h OGD, 24 h, no blocker, normalized to E2 10 nM (100%) and vehicle (0%). As for the experimental part:
Primary neuronal cultures were subjected to 2 h OGD with compounds added at the start of OGD and inhibitors added 45 min prior to OGD. Cell survival was measured at 24 h.
Primary cultures of dissociated cortical neurons were prepared as follows; briefly, cortices were dissected from E16-18 Sprague-Dawley rats (Charles River). After removal of meninges, cortices were manually dissociated and plated at a density of 10^6 cells/mL into 96-well plates. Twenty-four hours after plating, cultures were grown in Neurobasal A media supplemented with B27, glutamine and pen/strep, with media changes every 3–4 days. In accordance with published protocols, measured levels of glia in culture after DIV2 are <0.5%. Experiments were performed at DIV 11–12.
The cell media was changed to phenol red-free growing media at least 3 h before OGD. Receptor blockers were added 45 min prior to the start of OGD, and SERMs were added at the start of OGD, with concentrations maintained through media changes. For OGD, the cells were transferred to a hypoxia chamber controlled at 5% CO2 and <1% O2, and growth media was replaced with a physiological salt solution (in mM: NaCl 116, CaCl2 1.8, MgSO4 0.8, KCl 5.4, NaHCO3 14.7, NaHPO4 1, HEPES 10, pH = 7.4). After 2 h OGD, cells were removed from the chamber and growth media was replaced. After 24 h, cell viability was measured by MTT assay using a Dynex MRX ll micro-plate spectrophotometer.

Turning to `Oc1ccc(-c2sc3cc(O)ccc3c2Oc2ccc(OCCN3CCCCC3)cc2)cc1` [DMA, desmethylarzoxifene], in test [1], the PT entry is reported as “showed a clear trend”; the aPTT result was “significantly increased aPTT”; the “anticoagulant effect (PT, aPTT) at 3 h” value was “decreased to that of control samples”; the “anticoagulation (PT and aPTT) with NOS blockade” value was “did not persist in the presence of NOS blockade”. The “efficacy (maximal relaxation)” value in the test with isolated rings of aortae (intact aortic rings) is on record as around 100 % relaxation. In addition, the EC50 in the test with isolated rings of aortae (intact aortic rings contracted with phenylepinephrine, mean, S.D., read-out: EC50 for relaxation) is 3500 ± 2500 nM. The “efficacy after endothelium removal or NOS inhibition” value in the test on isolated rings of aortae (physical removal of the endothelium or L-NAME) was “significant decrease in the efficacy”. In addition, in test [2], the “elevation of NOx in hippocampus” value is listed as “greater than twofold elevation” and the “elevation of NOx in plasma” value is “greater than twofold elevation”. Moreover, in test [3], the “neuroprotection with G15” value is on record as “blocked the neuroprotective activity”, the “neuroprotection with L-NAME” value is “did not”, the “neuroprotection with LY294002” value was “attenuated neuroprotective activity” and the “neuroprotection with pertussis toxin” value is given as “blocked the neuroprotective activity”. The “neuroprotection (cell survival by MTT)” value in test [3] is recorded as “robust neuroprotection”.

As for `O=[N+]([O-])OCCCC1CCN(CCOc2ccc(Oc3c(-c4ccc(O)cc4)sc4cc(O)ccc34)cc2)CC1` [NO-DMA, 3-(1-(2-(4-(6-hydroxy-2-(4-ydroxyphenyl)benzo[b]thiophen-3-yloxy)phenoxy)ethyl)piperidin-4-yl)propyl nitrate], in test [1], the PT result is listed as “significantly increased PT”; the aPTT result was “significantly increased aPTT”; the “anticoagulant effect (PT, aPTT) at 3 h” value is listed as “remained significantly higher than control”; the “anticoagulation (PT and aPTT) with NOS blockade” value was “significantly increased anticoagulation compared to control in both PT and aPTT”. For the same molecule, the EC50 with isolated rings of aortae (endothelium-denuded tissues, read-out: EC50 for relaxation, endothelium-denuded) stood at 900 ± 690 nM. Besides, in the test with isolated rings of aortae (intact aortic rings), the “efficacy (maximal relaxation)” value is around 100 % relaxation and the “potency relative to DMA” value is “at least ten-fold increased potency”. In addition, in the test on isolated rings of aortae (intact aortic rings, read-out: EC50 for relaxation), the EC50 came out at 130 ± 90 nM. Further, in the test with isolated rings of aortae (tissues treated with L-NAME 100 µM, read-out: EC50 for relaxation, L-NAME), the EC50 was found to be 1000 ± 540 nM. Also, in test [2], the “elevation of NOx in hippocampus” value is “greater than twofold elevation” and the “elevation of NOx in plasma” value was “greater than twofold elevation”. Besides, in test [2] (eNOS(−/−) mice), the “NOx in hippocampus, eNOS(−/−)” value is “increase NOx significantly, relative to DMA” and the “NOx in plasma, eNOS(−/−)” value is given as “increase NOx significantly, relative to DMA”. Moreover, in test [3], the “neuroprotection with G15” value is listed as “blocked the neuroprotective activity”, the “neuroprotection with L-NAME” value is listed as “did not”, the “neuroprotection with LY294002” value is recorded as “attenuated neuroprotective activity” and the “neuroprotection with pertussis toxin” value is “blocked the neuroprotective activity”. The “neuroprotection (cell survival by MTT)” value in test [3] is “robust neuroprotection identical to DMA”. In addition, in test [3] (100 nM SERM + ICI 182780 100 nM, added 45 min prior to OGD), the “neuroprotection with ICI 182780” value is listed as “did not block this effect”.

What is called EC50 is the midpoint of the concentration-response curve.
